Assay: Safety and adverse events
Type: in vivo, human
Source text: On study blood tests included complete blood count (CBC) with differential and platelets; chemistry panel including sodium, potassium, creatinine, BUN, glucose, total protein, albumin, bilirubin (total), alkaline phosphatase, AST (SGOT), and ALT (SGPT), and lipid profile (HDL, LDL and triglycerides, cholesterol. […] Adverse event analysis was based on the percentage of patients who discontinued the study and the percentage of patients who discontinued the study possibly due to adverse events.

glatiramer acetate [Placebo + GA]
Fibrocystic disease on clinical exam - % (Breast): (5) %
Fibrocystic disease on clinical exam - no. (Breast): 4
Mammogram with malignancy - no. (Breast): 0
Breast adverse events, # of patients (Completed): [5]
Breast adverse events, number of events (Completed): 5
Cardiovascular adverse events, # of patients (Completed): [8]
Cardiovascular adverse events, number of events (Completed): 8
Extremity adverse events, # of patients (Completed): [21]
Extremity adverse events, number of events (Completed): 43
GA related? adverse events, # of patients (Completed): [11]
GA related? adverse events, number of events (Completed): 22
GI adverse events, # of patients (Completed): [15]
GI adverse events, number of events (Completed): 19
GU adverse events, # of patients (Completed): [10]
GU adverse events, number of events (Completed): 17
GYN adverse events, # of patients (Completed): [15]
GYN adverse events, number of events (Completed): 18
General adverse events, # of patients (Completed): [26]
General adverse events, number of events (Completed): 48
Head/Neck adverse events, # of patients (Completed): [26]
Head/Neck adverse events, number of events (Completed): 42
Lymph adverse events, # of patients (Completed): [1]
Lymph adverse events, number of events (Completed): 1
MRI related adverse events, # of patients (Completed): [2]
MRI related adverse events, number of events (Completed): 3
Menses adverse events, # of patients (Completed): [10]
Menses adverse events, number of events (Completed): 14
Mental adverse events, # of patients (Completed): [10]
Mental adverse events, number of events (Completed): 14
Neurology adverse events, # of patients (Completed): [9]
Neurology adverse events, number of events (Completed): 13
Respiratory adverse events, # of patients (Completed): [26]
Respiratory adverse events, number of events (Completed): 47
Skeleton adverse events, # of patients (Completed): [1]
Skeleton adverse events, number of events (Completed): 2
Skin adverse events, # of patients (Completed): [10]
Skin adverse events, number of events (Completed): 15
Total adverse events, # of patients (Completed): [53]
Total adverse events, number of events (Completed): 331
Cancer adverse events, # of patients (Discontinued): [1]
Cancer adverse events, number of events (Discontinued): 1
Extremity adverse events, # of patients (Discontinued): [2]
Extremity adverse events, number of events (Discontinued): 4
GA related? adverse events, # of patients (Discontinued): [4]
GA related? adverse events, number of events (Discontinued): 10
GI adverse events, # of patients (Discontinued): [3]
GI adverse events, number of events (Discontinued): 3
GU adverse events, # of patients (Discontinued): [3]
GU adverse events, number of events (Discontinued): 3
GYN adverse events, # of patients (Discontinued): [3]
GYN adverse events, number of events (Discontinued): 3
General adverse events, # of patients (Discontinued): [6]
General adverse events, number of events (Discontinued): 9
Head/Neck adverse events, # of patients (Discontinued): [4]
Head/Neck adverse events, number of events (Discontinued): 9
Lymph adverse events, # of patients (Discontinued): [1]
Lymph adverse events, number of events (Discontinued): 1
Menses adverse events, # of patients (Discontinued): [2]
Menses adverse events, number of events (Discontinued): 3
Mental adverse events, # of patients (Discontinued): [5]
Mental adverse events, number of events (Discontinued): 5
Neurology adverse events, # of patients (Discontinued): [1]
Neurology adverse events, number of events (Discontinued): 1
Respiratory adverse events, # of patients (Discontinued): [3]
Respiratory adverse events, number of events (Discontinued): 7
Skin adverse events, # of patients (Discontinued): [2]
Skin adverse events, number of events (Discontinued): 2
Total adverse events, # of patients (Discontinued): [13]
Total adverse events, number of events (Discontinued): 61
Abnormal proliferation on biopsy - no. (Uterus): 0
Endometrial biopsies performed - % (Uterus): (8) %
Endometrial biopsies performed - no. (Uterus): 6
Endometrial thickness >8 mm (ultrasound) - % (Uterus): (36) %
Endometrial thickness >8 mm (ultrasound) - no. (Uterus): 27
Fibroids (ultrasound) - % (Uterus): (11) %
Fibroids (ultrasound) - no. (Uterus): 8
Adverse events leading to discontinuation - % (in vivo): (6%)
Adverse events leading to discontinuation - no. (in vivo): 5
Any adverse event - % of pts (in vivo): 87%
Any adverse event - no of pts (in vivo): 67
Any adverse event - no. of events (in vivo): 392
Arm/leg numbness, tingling - % of pts (in vivo): 9%
Arm/leg numbness, tingling - no of pts (in vivo): 7
Arm/leg numbness, tingling - no. of events (in vivo): 10
Back pain - % of pts (in vivo): 6%
Back pain - no of pts (in vivo): 5
Back pain - no. of events (in vivo): 5
Copaxone injection area abnormalities - % of pts (in vivo): 18%
Copaxone injection area abnormalities - no of pts (in vivo): 14
Copaxone injection area abnormalities - no. of events (in vivo): 30
Depression/anxiety - % of pts (in vivo): 12%
Depression/anxiety - no of pts (in vivo): 9
Depression/anxiety - no. of events (in vivo): 10
Dizziness - % of pts (in vivo): 9%
Dizziness - no of pts (in vivo): 7
Dizziness - no. of events (in vivo): 10
Fatigue - % of pts (in vivo): 10%
Fatigue - no of pts (in vivo): 8
Fatigue - no. of events (in vivo): 10
Gastroenteritis - % of pts (in vivo): 4%
Gastroenteritis - no of pts (in vivo): 3
Gastroenteritis - no. of events (in vivo): 4
Headache - % of pts (in vivo): 14%
Headache - no of pts (in vivo): 11
Headache - no. of events (in vivo): 12
Heart palpitation - % of pts (in vivo): 5%
Heart palpitation - no of pts (in vivo): 4
Heart palpitation - no. of events (in vivo): 4
Insomnia - % of pts (in vivo): 5%
Insomnia - no of pts (in vivo): 4
Insomnia - no. of events (in vivo): 4
Irregular menses/spotting - % of pts (in vivo): 4%
Irregular menses/spotting - no of pts (in vivo): 3
Irregular menses/spotting - no. of events (in vivo): 4
Menstrual cramp - % of pts (in vivo): 5%
Menstrual cramp - no of pts (in vivo): 4
Menstrual cramp - no. of events (in vivo): 5
Menstrual flow amount increased - % of pts (in vivo): 8%
Menstrual flow amount increased - no of pts (in vivo): 6
Menstrual flow amount increased - no. of events (in vivo): 8
Nausea/vomiting - % of pts (in vivo): 6%
Nausea/vomiting - no of pts (in vivo): 5
Nausea/vomiting - no. of events (in vivo): 5
Severe adverse events - % of pts (in vivo): 13%
Severe adverse events - no of pts (in vivo): 10
Severe adverse events - no. of events (in vivo): 12
Shingles - % of pts (in vivo): 5%
Shingles - no of pts (in vivo): 4
Shingles - no. of events (in vivo): 4
Sinusitis - % of pts (in vivo): 13%
Sinusitis - no of pts (in vivo): 10
Sinusitis - no. of events (in vivo): 14
Upper respiratory infection - % of pts (in vivo): 34%
Upper respiratory infection - no of pts (in vivo): 26
Upper respiratory infection - no. of events (in vivo): 38
Urinary tract infection - % of pts (in vivo): 13%
Urinary tract infection - no of pts (in vivo): 10
Urinary tract infection - no. of events (in vivo): 16
Vaginal infection - % of pts (in vivo): 10%
Vaginal infection - no of pts (in vivo): 8
Vaginal infection - no. of events (in vivo): 9
Vision problem (blurry, double) - % of pts (in vivo): 9%
Vision problem (blurry, double) - no of pts (in vivo): 7
Vision problem (blurry, double) - no. of events (in vivo): 7
Accidently took other's drug - % of pts (severe adverse event): [1, 1%]
Accidently took other's drug - no of pts (severe adverse event): [1, 1%]
Accidently took other's drug - no. of events (severe adverse event): 1
Acute appendicitis - % of pts (severe adverse event): [1, 1%]
Acute appendicitis - no of pts (severe adverse event): [1, 1%]
Acute appendicitis - no. of events (severe adverse event): 1
B-cell lymphoma - % of pts (severe adverse event): [1, 1%]
B-cell lymphoma - no of pts (severe adverse event): [1, 1%]
B-cell lymphoma - no. of events (severe adverse event): 1
Car accident related body numbness - % of pts (severe adverse event): [1, 1%]
Car accident related body numbness - no of pts (severe adverse event): [1, 1%]
Car accident related body numbness - no. of events (severe adverse event): 1
Heart failure - no. of events (severe adverse event): 0
MS relapse - % of pts (severe adverse event): 6%
MS relapse - no of pts (severe adverse event): 5
MS relapse - no. of events (severe adverse event): 6
Migraine headache related eye pain - no. of events (severe adverse event): 0
Pace maker implantation - no. of events (severe adverse event): 0
Pregnancy termination - no. of events (severe adverse event): 0
Pyelonephritis - no. of events (severe adverse event): 0
Right knee replacement - % of pts (severe adverse event): [1, 1%]
Right knee replacement - no of pts (severe adverse event): [1, 1%]
Right knee replacement - no. of events (severe adverse event): 1
Systolic heart failure - no. of events (severe adverse event): 0
UTI - % of pts (severe adverse event): [1, 1%]
UTI - no of pts (severe adverse event): [1, 1%]
UTI - no. of events (severe adverse event): 1

From patent US10406169B2, “Methods of monitoring estriol therapy” (The Regents of the University of California, priority 2015, dated 2019)
